Values joined by “and” are separate entries in the source; they are usually repeats but may differ in a detail not shown here. Identical values can stand only once.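 Exposure lasted 48 hours, with cells grown in 96-well plates and compounds tested at five concentrations. GI50 marks 50% less growth. TGI: total growth inhibition.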 Where a SMILES comes first, the peptide text is derived from it. [ ]: non-standard residue; d: D form. NMeY = CN[C@@H](Cc1ccc(O)cc1)C(=O)O; dNMeF = CN[C@H](Cc1ccccc1)C(=O)O; Sar = CNCC(=O)O
How the values were obtained:
Assay in all cases: NCI-60 cell line screen, 48 h
SK-MEL-28 melanoma = test system: SK-MEL-28 melanoma
EKVX NSCLC = test system: EKVX NSCLC
HCT-116 colon = test system: HCT-116 colon
COLO 205 colon = test system: COLO 205 colon
MDA-MB-435 = test system: MDA-MB-435
SK-OV-3 ovarian = test system: SK-OV-3 ovarian
HOP-92 NSCLC = test system: HOP-92 NSCLC
RXF 393 renal = test system: RXF 393 renal
K-562 leukemia = test system: K-562 leukemia
NCI-H226 lung = test system: NCI-H226 lung

SMILES	TGI (SK-MEL-28 melanoma)	TGI (EKVX NSCLC) [µM]	TGI (HCT-116 colon)	TGI (COLO 205 colon)	TGI (MDA-MB-435)	TGI (SK-OV-3 ovarian)	TGI (HOP-92 NSCLC)	TGI (RXF 393 renal)	GI50 (SK-MEL-28 melanoma)	GI50 (EKVX NSCLC) [µM]	GI50 (HCT-116 colon)	GI50 (MDA-MB-435)	TGI (K-562 leukemia)	GI50 (SK-OV-3 ovarian)	GI50 (HOP-92 NSCLC) [µM]	GI50 (NCI-H226 lung)	TGI (NCI-H226 lung)	GI50 (RXF 393 renal)	GI50 (COLO 205 colon)	GI50 (K-562 leukemia)
OCCNc1ncnc2c1ncn2C1OC(CO)C(O)C1O (configuration not stated)	> 100 µM	> 100	> 100 µM	> 100 µM	> 100 µM	> 100 µM	> 100 µM	> 100 µM	–	–	–	–	–	–	–	–	–	–	–	–
C/C(=N\NC(=O)c1ccccc1O)c1cccc(/C(C)=N/NC(=O)c2ccccc2O)n1	> 100 µM	> 100	66.9 µM and 28.4 µM	> 100 µM	> 100 µM	36.3 µM and > 100 µM	67.3 µM and 36.8 µM	32.5 µM and 30.6 µM	24.4 µM and > 100 µM	0.317	5.85 µM and 0.619 µM	0.767 µM	> 100 µM	1.31 µM	0.908	5.8 µM and 3.79 µM	> 100 µM	5.38 µM	–	–
Nc1nc(N)c2c(ccc3nccc32)[nH]1	> 93.8 µM	> 100	> 71.2 µM	50.9 µM	35.4 µM	> 81.5 µM	30.6 µM	17.8 µM	14.7 µM	2.22	0.934 µM	0.688 µM	> 100 µM	18.4 µM	4.18	15.2 µM	> 88.9 µM	3.09 µM	8.03 µM	0.319 µM
CN(C)C(=O)c1cc2cnc(Nc3ccc(-c4csc5c(=O)cc(N6CCNCC6)oc45)cc3)nc2n1C1CCCC1	6.88 µM	6.53	1.4 µM	4.64 µM	6.61 µM	21.2 µM	16.5 µM	1.03 µM	2.14 µM	1.49	0.318 µM	0.94 µM	4.2 µM	6.21 µM	0.517	1.61 µM	15.3 µM	0.27 µM	0.671 µM	0.456 µM
Cc1cc2c3ccccc3ccc2[n+]2ccccc12	12.7 µM	> 33.4	44.4 µM	8.31 µM	26.6 µM	73.3 µM	27.4 µM	> 84.4 µM	3.07 µM	1.22	7.29 µM	8.56 µM	32.8 µM	10.7 µM	2.69	3.14 µM	23.7 µM	14.3 µM	1.95 µM	4.32 µM
Nc1ncnc2c(C3OC(CO)C(O)C3O)[nH]nc12 (configuration not stated)	30.6 µM and 25.4 µM	–	3.16 µM	15.7 µM and 11.7 µM	8.42 µM	0.241 µM and 0.6 µM	–	2.92 µM and 1.88 µM	2.64 µM and 1.69 µM	1.6	–	0.356 µM	2.03 µM	0.0323 µM and 0.0738 µM	0.202	0.529 µM and 0.793 µM	5.83 µM and 10.7 µM	–	2.99 µM	0.0459 µM
O=C1c2cc3c(cc2[C@@H]2[C@H]1c1ccc([N+](=O)[O-])cc1C(=O)N2CCCCl)OCO3	–	> 100	15.7 µM	> 100 µM	< 0.0422 µM	–	> 100 µM	10.1 µM	–	< 0.01	< 0.01 µM	< 0.01 µM	> 100 µM	< 0.027 µM	< 0.03	< 0.01 µM	0.136 µM	< 0.01 µM	< 0.0131 µM	0.857 µM
N#CSCc1c(Cl)cccc1Cl	> 100 µM	> 27.4	> 39.3 µM	4.97 µM	5.63 µM	> 100 µM	> 30 µM	7.24 µM	9.16 µM	3.94	2.92 µM	2.11 µM	16.3 µM	34 µM	1.18	12.6 µM	> 100 µM	2.54 µM	2.34 µM	0.359 µM
COc1ccc(-c2cc(-c3cn[nH]c3-c3ccccn3)ccn2)cc1	> 25 µM	> 25	> 25 µM	> 25 µM	> 25 µM	> 25 µM	> 25 µM	> 25 µM	> 25 µM	> 25	> 25 µM	> 19.2 µM	> 25 µM	> 25 µM	> 25	> 25 µM	> 25 µM	> 25 µM	> 25 µM	14 µM
C/C1=C\C/C=C(\C)[C@H]2CC(CC/C(C)=C/CC1)[C@@](C)(CO)O2	> 100 µM	> 100	> 100 µM	> 100 µM	> 100 µM	> 100 µM	> 100 µM	> 100 µM	> 100 µM	> 100	44.5 µM	> 100 µM	> 100 µM	> 100 µM	36.3	> 100 µM	> 100 µM	> 100 µM	> 100 µM	28.4 µM
O=C(OCC1OC(OC(=O)c2cc(O)c(O)c(OC(=O)c3cc(O)c(O)c(O)c3)c2)C(OC(=O)c2cc(O)c(O)c(OC(=O)c3cc(O)c(O)c(O)c3)c2)C(OC(=O)c2cc(O)c(O)c(OC(=O)c3cc(O)c(O)c(O)c3)c2)C1OC(=O)c1cc(O)c(O)c(OC(=O)c2cc(O)c(O)c(O)c2)c1)c1cc(O)c(O)c(OC(=O)c2cc(O)c(O)c(O)c2)c1 (configuration not stated)	> 50 µM	> 50	> 50 µM	> 50 µM	30.5 µM	> 50 µM	> 50 µM	> 50 µM	> 50 µM	13.5	21.9 µM	10.9 µM	> 50 µM	17.3 µM	43.9	16.6 µM	> 50 µM	30.3 µM	14.5 µM	25.3 µM
CC1(C)CC(=O)c2c(ccc(C(=O)C[C@H](N)CO)c2N)O1	17.5 µM and > 33.3 µM	> 33.3	17.5 µM and > 33.3 µM	17.5 µM and > 33.3 µM	17.5 µM and > 33.3 µM	> 33.3 µM	17.5 µM	17.5 µM and > 33.3 µM	–	> 33.3	1.36 µM and 2.01 µM	15.3 µM and 4.47 µM	17.5 µM and > 33.3 µM	> 17.5 µM and 12.3 µM	7.04	–	17.5 µM and 23.7 µM	4.45 µM and 5.14 µM	4.92 µM and 2.07 µM	2.27 µM and 0.251 µM
C#C[C@@]1(O)[C@@H](CO)O[C@@H](n2ccc3c(N)ncnc32)[C@@H]1O	20.2 µM	5.43	10.8 µM	2.67 µM	3.49 µM	5.24 µM	5.56 µM	4.6 µM	3.99 µM	1.52	0.595 µM	1.48 µM	> 100 µM	1.07 µM	2.04	2.05 µM	4.85 µM	1.93 µM	0.679 µM	0.806 µM
CC(=O)OC1CCC2(C)C(CCC3C4CC=C(C(C)=O)C4(C)OC(=O)CC32)C1 (configuration not stated)	3.27 µM	–	2.62 µM	3.02 µM	4.66 µM	23.1 µM	4.21 µM	2.51 µM	1.74 µM	–	1.13 µM	1.71 µM	10.3 µM	11.1 µM	1.74	1.95 µM	4.32 µM	1.15 µM	1.64 µM	3.35 µM
ClC1=NC(Cl)C(Cl)=N/C1=N\c1ncn[nH]1 (configuration not stated)	4.04 µM	–	3.48 µM	4.55 µM	6.01 µM	29 µM	3.1 µM	3.2 µM	1.95 µM	–	1.76 µM	2.24 µM	–	15.5 µM	1.59	3.27 µM	15.9 µM	1.71 µM	2.28 µM	–
CC[C@H](C)[C@@H]1NC(=O)[C@H](Cc2ccc(O)cc2)N(C)C(=O)[C@H](Cc2ccccc2)NC(=O)CN(C)C(=O)[C@@H]2CCCN2C(=O)[C@@H](Cc2ccccc2)N(C)C(=O)[C@H](CC(C)C)NC1=O (cyclo(F[NMeY]IL[dNMeF]P[Sar]))	1.46 µM	6.47	10.5 µM	3.3 µM	1.7 µM	7.73 µM	4.83 µM	3.27 µM	0.194 µM	0.301	0.155 µM	0.205 µM	31.4 µM	0.446 µM	0.198	0.768 µM	8.18 µM	0.519 µM	0.185 µM	0.262 µM
C[C@H]1[C@H](C)CC[C@]2(C(=O)O)CC[C@]3(C)C(=CC[C@@H]4[C@@]5(C)CC[C@H](OC(=O)/C=C/c6ccc(O)cc6)C(C)(C)[C@@H]5CC[C@]43C)[C@H]12	> 74.5 µM	18.6	7.93 µM	> 50.3 µM	19.7 µM	20.3 µM	37.2 µM	5.42 µM	19.1 µM	3.88	3.09 µM	6.38 µM	47.2 µM	5.25 µM	16.6	15.1 µM	29.2 µM	1.83 µM	4.12 µM	7.14 µM
Nc1c(C(=O)c2cccc(CCC3(O)CCCC3)c2)cnn1-c1ccc(F)cc1	> 25 µM	–	> 25 µM	> 25 µM	> 25 µM	> 25 µM	20.2 µM	> 25 µM	> 22.9 µM	–	18.5 µM	8.98 µM	> 25 µM	> 25 µM	2.73	8.04 µM	> 25 µM	16.9 µM	16.6 µM	10.1 µM
Cc1ncc(C(=O)Nc2ccc(CN3CCN(C)CC3)c(C(F)(F)F)c2)cc1C#Cc1cnc(N)c2ncccc12	1.49 µM	3.62	2.4 µM	1.61 µM	1.58 µM	7.2 µM	1.66 µM	1.49 µM	0.056 µM	1.27	0.218 µM	0.0419 µM	–	0.341 µM	0.129	0.293 µM	24.3 µM	0.0984 µM	0.0424 µM	–
O=C(NNc1ccccc1)OCc1ccccc1	> 100 µM	–	> 100 µM	46.4 µM	> 100 µM	> 100 µM	> 100 µM	> 100 µM	98.3 µM	–	12.4 µM	4.13 µM	> 100 µM	> 100 µM	14.7	–	–	91.6 µM	17 µM	1.94 µM
CCN(C(=O)CCl)C(C)(C)C(SSSC(c1ccc(Cl)cc1)C(C)(C)N(CC)C(=O)CCl)c1ccc(Cl)cc1 (configuration not stated)	4.31 µM	–	18.5 µM	24.8 µM	5.49 µM	31.5 µM	8.6 µM	13.8 µM	2.05 µM	–	4.47 µM	2.14 µM	3.59 µM	15.3 µM	1.29	15 µM	33.4 µM	2.95 µM	7.21 µM	1.71 µM
N#Cc1cccc(/C=C(/C(=O)c2ccccc2)c2ccccc2)c1	19.1 µM	–	11.3 µM	20 µM	11 µM	20.8 µM	–	10.8 µM	5.35 µM	–	3.06 µM	3 µM	23.6 µM	5.53 µM	2.6	6.45 µM	26.7 µM	3.72 µM	5.3 µM	3.52 µM
CC[C@H](C)[C@H](NC(=O)Nc1ccccc1)C(=O)N(C)[C@H](C[C@@H](OC(C)=O)c1nc(C(=O)N[C@@H](Cc2ccccc2)C[C@H](C)C(=O)OC)cs1)C(C)C	> 100 µM	> 100	> 100 µM	18.2 µM	1.86 µM	> 100 µM	62.9 µM	7.25 µM	> 100 µM	5.36	3.33 µM	0.416 µM	–	5.13 µM	1.34	8.83 µM	> 100 µM	1.95 µM	3.17 µM	–
CCN(CC)CCCOc1cc(O)c2c(=O)cc(-c3ccccc3)oc2c1	17 µM	26.4	–	15.5 µM	24.8 µM	28 µM	16.7 µM	28.8 µM	3.42 µM	13.2	–	5.5 µM	3.67 µM	14.3 µM	3.08	13.6 µM	29.7 µM	11.6 µM	4.21 µM	1.48 µM
COc1ccc(/C=C/C(=O)c2ccc3cc(OC)c(OC)cc3c2)cc1OC	32.3 µM	–	> 100 µM	13.2 µM	18.1 µM	83.5 µM	6.26 µM	8.15 µM	11.2 µM	–	2.64 µM	3.06 µM	> 100 µM	4.41 µM	1.65	2.97 µM	13.5 µM	2.82 µM	4.1 µM	3.02 µM

Source: PubChem BioAssay (NCI)
